Assay results published in US9889180B2, “Method of treating cancer” (Agency for Science, Technology and Research, priority 2012, dated 2018).

Columns and labels:
[1] = tested on: IFN responsive genes (IFI16, IRF1, OAS1); assay: Quantitative PCR of IFN responsive genes in DU145 prostatospheres; type: cell-based, human; conditions: DZNep with IFN-γ
Description: Total RNA was isolated by using Trizol (Invitrogen) and purified with the RNeasy Mini Kit (Qiagen). The microarray hybridization was performed using the Illumina Gene Expression Sentrix BeadChip HumanRef-8_V3, and data analysis was performed by GeneSpring software from Agilent Technologies as described previously. The analyzed gene sets by GeneSpring were next subjected to Ingenuity Pathway Analysis (IPA) for gene ontology (GO) analysis. Reverse transcription and quantitative PCR assays were performed using High Capacity cDNA Archive kit and KAPA SyBr Fast qPCR kit (KAPA biosystems). For quantification of mRNA levels, 18S level was used as an internal control. All reactions were analyzed in an Applied Biosystems PRISM 7500 Fast Real-Time PCR system in 96-well plate format. Prostatospheres were generated according to protocols known to the skilled person in the art. […] 7 days old prostatospheres formed were stained with 4 μg/ml p-Iodonitrotetrazolium Violet (INT) overnight and were counted and analyzed using a GelCount™ automatic plate scanner (Oxford Optronics) and GelCount Version 0.025.1 software (Oxford Optronics). […]

DU145 xenograft tumor = DU145 xenograft tumor growth in male athymic nude mice; type: in vivo; conditions: IFN-γ 1×10^7 IU/kg i.p. daily, DZNep 1 mg/kg s.c. every alternating day, 38 days
Description: For in vivo evaluation of DZNep and IFN-γ treatment, the experiments were conducted in compliance with animal protocol approved by the ASTAR-Biopolis Institutional Animal Care and Use Committee (IACUC) of Singapore. DU145 cells were subcutaneously injected into 6-8 week male nude mice at 5×10^6 cells, followed by treatment with vehicle, IFN-γ (1×10^7 IU/kg) alone, DZNep (1 mg/kg) alone or combined DZNep (1 mg/kg) with IFN-γ (1×10^7IU/kg). IFN-γ was administered by intraperitoneal injection daily and DZNep by subcutaneous injection on every alternating day over a duration of 38 days after average tumor size reached around 150 mm^3. Tumors were measured by vernier calliper at least twice per week and tumors volume was calculated with formula: V=W*W*L/2. Each xenograft treatment arm comprised of 5-8 mice. Differences among groups and treatments were determined by ANOVA followed by t tests. (***p<0.001, n.s=not significant) Error bars represent means±s.e.m

[2] = tested on: EZH2 and IFNGR1 expression; assay: Immunohistochemistry of EZH2 and IFNGR1 in DU145 xenograft tumors; type: in vivo; conditions: tumors resected from treated mice
Description: Tissue microarray slides (PR956, BR1503b, LC2083, and LV6161) were purchased from US Biomax. Staining and image analysis of tissue microarray were performed by Histopathology Department from Institute of Molecular and Cell Biology, Agency for Science, Technology, and Research (A*STAR), Singapore. Anti-EZH2 (D2C9 XP) antibody was purchased from Cell Signaling, anti-MYC (9E10) and anti-IFNGR1 antibody (GIR-94) was purchased from Santa Cruz Biotechnology. Briefly, five-micron paraffin-embedded tissue sections cut, deparaffinized, rehydrated, antigens were retrieved by Proteinase K solution; sections were then incubated in 3% H2O2 at room temperature to block endogenous peroxidase. Slides were incubated in primary antibody against EZH2 or IFNGR1 for 45 mins followed by 30 min incubation with anti-mouse Labelled Polymer (Dako, Calif.). Specificity of the immunostaining was determined by the inclusion of isotype-specific IgG as negative control. […]
For in vivo evaluation of DZNep and IFN-γ treatment, the experiments were conducted in compliance with animal protocol approved by the ASTAR-Biopolis Institutional Animal Care and Use Committee (IACUC) of Singapore. […] Tumors were measured by vernier calliper at least twice per week and tumors volume was calculated with formula: V=W*W*L/2. […] Differences among groups and treatments were determined by ANOVA followed by t tests. […]

[3] = tested on: IFNGR1 expression and STAT1 activation; assay: Western blot of IFNGR1 and IFN signaling in T47D cells; type: cell-based, human
Description: Western Blotting was performed as described previously. Briefly, Cells were scraped, collected, and lysed in RIPA buffer. To release histones from chromatin, cell lysates were further sonicated for 15 sec using a XL2000 Microson Ultrasonic Processor (Misonix). Equal amounts of protein (30 μg) were separated on SDS-polyacrylamide gels and transferred to PVDF membranes. The blots were probed with antibodies against EED (07-368), SUZ12 (07-379), trimethylated H3-K27 (07-449), Acetyl-Histone H3 (06-599), which were purchased from Upstate Biotechnology. IFNGR1 (GIR-94) and anti-IFI16 (1G7) were purchased from Santa Cruz. EZH2 phospho S21 (00388) was purchased from Bethyl Laboratories. EZH2 (AC22), P110α PI3K, p-AKT (T308), p-AKT (S473), pSTAT1Y701, total STAT1, Histone H3 (3H1), Beclin-1 and cleaved PARP were purchased from Cell Signaling. Myc and Actin were purchased from Roche Applied Science and Sigma-Aldrich, respectively.

[4] = tested on: PC3-derived prostatospheres; assay: Prostatosphere formation assay, PC3; type: cell-based, human; conditions: EZH2 knockdown in combination with IFN-γ, 7 days

Row | Molecule | expression of IFN genes in prostatospheres [1] | xenograft tumor growth (DU145 xenograft tumor) | EZH2 expression in tumors (IHC) [2] | IFNGR1 expression in tumors (IHC) [2] | IFNGR1 expression [3] | STAT1 activation and PARP cleavage ([3]; DZNep co-treated with IFN-γ) | tumorsphere formation after knockdown [4]
1 | Cl.Nc1nccc2c1ncn2[C@@H]1C=C(CO)[C@@H](O)[C@H]1O [DZNep, (−)-1-[(1R,4R,5S)-3-(Hydroxymethyl)-4,5-dihydroxy-2-cyclopenten-1-yl]4-aminoimidazo[4,5-c]pyridine hydrochloride] | enhanced response to IFN-γ stimulation | slowed down the tumor growth | downregulation of EZH2 | upregulation of IFNGR1 | restored the IFNGR1 expression | increased STAT1 activation and PARP cleavage | –
2 | EZH2 knockdown: EZH2 siRNA: 5′-GACUCUGAAUGCAGUUGCU-3′ (SEQ ID NO: 1) (other strand not given here) | – | – | – | – | – | – | efficiently inhibited the tumorsphere formation
